Laboratory results published in PubChem BioAssay AID248 (DTP/NCI, 2004).
Toxic doses and inconclusive results are not listed. Rule as the data show it: active = T/C of 150% or more; inactive = T/C below 125%.

Test system: L1210 leukemia ip in BDF1 mice, survival T/C
Assay: NCI In Vivo Anticancer Drug Screen. Data for tumor model L1210 Leukemia (intraperitoneal) in B6D2F1 (BDF1) mice
Details: endpoint: mean survival time, higher = longer survival
Method in brief: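 Survival endpoint. Drug-treated group vs vehicle group, expressed as T divided by C. Tumor passaged by transplantation.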

[1] = dose: 100.0 mg/kg/injection, schedule: Q01DX001 (ip), vehicle: saline
[2] = dose: 100.0 mg/kg/injection, schedule: Q04DX003 (ip), vehicle: saline
[3] = dose: 200.0 mg/kg/injection, schedule: Q01DX001 (ip), vehicle: saline
[4] = dose: 400.0 mg/kg/injection, schedule: Q01DX001 (ip), vehicle: saline
[5] = dose: 400.0 mg/kg/injection, schedule: Q04DX003 (ip), vehicle: saline
[6] = dose: 100.0 mg/kg/injection, schedule: Q04DX003 (ip), vehicle: saline with Tween-80
[7] = dose: 200.0 mg/kg/injection, schedule: Q04DX003 (ip), vehicle: saline with Tween-80
[8] = dose: 100.0 mg/kg/injection, schedule: Q01DX001 (ip), vehicle: carboxymethylcellulose (CMC)
[9] = dose: 200.0 mg/kg/injection, schedule: Q01DX001 (ip), vehicle: carboxymethylcellulose (CMC)
[10] = dose: 400.0 mg/kg/injection, schedule: Q01DX001 (ip), vehicle: carboxymethylcellulose (CMC)
[11] = dose: 100.0 mg/kg/injection, schedule: Q04DX002 (ip), vehicle: Klucel (hydroxypropylcellulose) (HPC)
[12] = dose: 200.0 mg/kg/injection, schedule: Q04DX002 (ip), vehicle: Klucel (hydroxypropylcellulose) (HPC)
[13] = dose: 400.0 mg/kg/injection, schedule: Q04DX002 (ip), vehicle: Klucel (hydroxypropylcellulose) (HPC)

Measured: T/C

CC(=O)OC1CC2(Cl)C(Cl)=C(Cl)C1(Cl)C2(Cl)Cl (centres undefined)
inactive: [1] 100 % of control | [2] 89 % of control | [3] 98 % of control | [4] 98 % of control | [5] 103 % of control

CCC1=CC(=O)C(CC)=CC1=O
inactive: [6] 89 % of control | [7] 94 % of control | dose: 700.0 mg/kg/injection, schedule: Q04DX003 (ip), vehicle: saline with Tween-80 100 % of control

COc1ccc(CC(=O)NNC(=O)C2(C(C)C)OC3(O)CCCCCN3C2=O)cc1OC (centres undefined)
inactive: dose: 12.5 mg/kg/injection, schedule: Q04DX003 (ip), vehicle: saline with Tween-80 101 % of control | dose: 25.0 mg/kg/injection, schedule: Q04DX003 (ip), vehicle: saline with Tween-80 92 % of control | dose: 50.0 mg/kg/injection, schedule: Q04DX003 (ip), vehicle: saline with Tween-80 101 % of control | [6] 90 % of control

CCCC(NC(=O)OCC)NC(=O)OCC
inactive: dose: 50.0 mg/kg/injection, schedule: Q01DX001 (ip), vehicle: carboxymethylcellulose (CMC) 95 % of control | [8] 92 % of control | [9] 90 % of control | [10] 92 % of control

COC(=O)C(C)C(C)=O (centres undefined)
inactive: dose: 100.0 mg/kg/injection, schedule: Q01DX009 (sc), vehicle: olive oil, sesame oil, peanut oil 106 % of control | dose: 100.0 mg/kg/injection, schedule: Q04DX003 (sc), vehicle: olive oil, sesame oil, peanut oil 98 % of control | dose: 200.0 mg/kg/injection, schedule: Q01DX009 (sc), vehicle: olive oil, sesame oil, peanut oil 107 % of control | dose: 200.0 mg/kg/injection, schedule: Q04DX003 (sc), vehicle: olive oil, sesame oil, peanut oil 101 % of control | dose: 400.0 mg/kg/injection, schedule: Q01DX009 (sc), vehicle: olive oil, sesame oil, peanut oil 106 % of control | dose: 400.0 mg/kg/injection, schedule: Q04DX003 (sc), vehicle: olive oil, sesame oil, peanut oil 98 % of control

CC(=O)OC1CCC2(C)C3CCC4(C)C(c5ccc(=O)oc5)CC5OC54C3CCC2(O)C1 (centres undefined)
inactive: dose: 1.0 mg/kg/injection, schedule: Q01DX001 (sc), vehicle: steriod suspending solution 98 % of control | dose: 2.0 mg/kg/injection, schedule: Q01DX001 (sc), vehicle: steriod suspending solution 96 % of control | dose: 4.0 mg/kg/injection, schedule: Q01DX001 (sc), vehicle: steriod suspending solution 96 % of control | dose: 8.0 mg/kg/injection, schedule: Q01DX001 (sc), vehicle: steriod suspending solution 107 % of control | dose: 12.0 mg/kg/injection, schedule: Q01DX001 (sc), vehicle: steriod suspending solution 113 % of control | dose: 16.0 mg/kg/injection, schedule: Q01DX001 (sc), vehicle: steriod suspending solution 107 % of control | dose: 32.0 mg/kg/injection, schedule: Q01DX001 (sc), vehicle: steriod suspending solution 114 % of control | dose: 64.0 mg/kg/injection, schedule: Q01DX001 (sc), vehicle: steriod suspending solution 103 % of control | dose: 128.0 mg/kg/injection, schedule: Q01DX001 (sc), vehicle: steriod suspending solution 115 % of control

CC(C)(C)C(=O)c1nn[nH]n1
inactive: dose: 50.0 mg/kg/injection, schedule: Q01DX009 (ip), vehicle: saline 91 % of control | [1] 104 % of control | dose: 100.0 mg/kg/injection, schedule: Q01DX009 (ip), vehicle: saline 98 % of control | [3] 102 % of control

COC(=O)c1oc(C(=O)OC)c(OCc2ccccc2)c1OCc1ccccc1
inactive: dose: 100.0 mg/kg/injection, schedule: Q04DX003 (ip), vehicle: Klucel (hydroxypropylcellulose) (HPC) 103 % of control | dose: 200.0 mg/kg/injection, schedule: Q04DX003 (ip), vehicle: Klucel (hydroxypropylcellulose) (HPC) 106 % of control | dose: 400.0 mg/kg/injection, schedule: Q04DX003 (ip), vehicle: Klucel (hydroxypropylcellulose) (HPC) 95 % of control

CN(C)c1c(-c2ccc(Cl)cc2)cc(-c2ccccc2)[nH]c1=O
inactive: [8] 97 % of control | dose: 100.0 mg/kg/injection, schedule: Q01DX009 (ip), vehicle: acetone 95 % of control | [2] 89 % of control | [9] 91 % of control | dose: 200.0 mg/kg/injection, schedule: Q01DX009 (ip), vehicle: acetone 98 % of control | dose: 200.0 mg/kg/injection, schedule: Q04DX003 (ip), vehicle: saline 89 % of control | [10] 91 % of control | dose: 400.0 mg/kg/injection, schedule: Q01DX009 (ip), vehicle: acetone 93 % of control | [5] 87 % of control

CC(=O)OCC(C)c1ccccc1 (centres undefined)
inactive: dose: 100.0 mg/kg/injection, schedule: Q04DX002 (ip), vehicle: saline 96 % of control | dose: 200.0 mg/kg/injection, schedule: Q04DX002 (ip), vehicle: saline 103 % of control | dose: 400.0 mg/kg/injection, schedule: Q04DX002 (ip), vehicle: saline 96 % of control

O=C1CC(c2ccccc2)=NCCN1
inactive: dose: 100.0 mg/kg/injection, schedule: Q01DX009 (ip), vehicle: Klucel (hydroxypropylcellulose) (HPC) 97 % of control | dose: 200.0 mg/kg/injection, schedule: Q01DX009 (ip), vehicle: Klucel (hydroxypropylcellulose) (HPC) 95 % of control | dose: 400.0 mg/kg/injection, schedule: Q01DX009 (ip), vehicle: Klucel (hydroxypropylcellulose) (HPC) 114 % of control

O=S(=O)(CBr)CBr
inactive: [1] 98 % of control | [3] 95 % of control | [4] 112 % of control

O=C(COc1ccc(Cl)cc1Cl)Nc1cccc2c1C(=O)c1ccccc1C2=O
inactive: dose: 100.0 mg/kg/injection, schedule: Q04DX002 (ip), vehicle: saline + alcohol 96 % of control | dose: 200.0 mg/kg/injection, schedule: Q04DX002 (ip), vehicle: saline + alcohol 100 % of control | dose: 400.0 mg/kg/injection, schedule: Q04DX002 (ip), vehicle: saline + alcohol 96 % of control

CCCCCCCCCCN=C(N)N/C(N)=N/S(=O)(=O)c1ccc(OCCCCCCCCC)cc1
inactive: [11] 97 % of control | [12] 89 % of control | [13] 89 % of control

c1coc(-c2ncc3cnccn23)c1
inactive: dose: 50.0 mg/kg/injection, schedule: Q01DX005 (ip), vehicle: saline 111 % of control | dose: 100.0 mg/kg/injection, schedule: Q01DX005 (ip), vehicle: saline 108 % of control

COc1ccc([N+](=O)[O-])cc1NS(=O)(=O)c1ccc2ccccc2c1
inactive: [11] 104 % of control | [12] 100 % of control | [13] 115 % of control

COC1=NS(=O)(=O)C2(O1)c1ccccc1-c1ccccc12
inactive: [11] 96 % of control | [12] 96 % of control | [13] 116 % of control

CCCCc1cn(C(C)=O)nn1
inactive: dose: 100.0 mg/kg/injection, schedule: Q04DX002 (ip), vehicle: saline with Tween-80 106 % of control | dose: 200.0 mg/kg/injection, schedule: Q04DX002 (ip), vehicle: saline with Tween-80 100 % of control

Nc1ccnc2n[nH]nc12
inactive: dose: 100.0 mg/kg/injection, schedule: Q01DX001 (ip), vehicle: saline with Tween-80 111 % of control | [6] 101 % of control | dose: 200.0 mg/kg/injection, schedule: Q01DX001 (ip), vehicle: saline with Tween-80 110 % of control | [7] 100 % of control | dose: 400.0 mg/kg/injection, schedule: Q01DX001 (ip), vehicle: saline with Tween-80 104 % of control | dose: 400.0 mg/kg/injection, schedule: Q04DX003 (ip), vehicle: saline with Tween-80 103 % of control

CS/C(N)=N\N=C\c1ccccn1
inactive: dose: 12.5 mg/kg/injection, schedule: Q01DX001 (ip), vehicle: carboxymethylcellulose (CMC) 104 % of control | dose: 25.0 mg/kg/injection, schedule: Q01DX001 (ip), vehicle: carboxymethylcellulose (CMC) 103 % of control

CCOc1ccc(/C=N/NS(=O)(=O)c2ccccc2)cc1OC
inactive: dose: 100.0 mg/kg/injection, schedule: Q01DX009 (ip), vehicle: saline with Tween-80 94 % of control | dose: 100.0 mg/kg/injection, schedule: Q04DX003 (ip), vehicle: saline sonified 107 % of control | dose: 200.0 mg/kg/injection, schedule: Q01DX009 (ip), vehicle: saline with Tween-80 98 % of control | dose: 200.0 mg/kg/injection, schedule: Q04DX003 (ip), vehicle: saline sonified 86 % of control | dose: 400.0 mg/kg/injection, schedule: Q01DX009 (ip), vehicle: saline with Tween-80 89 % of control | dose: 400.0 mg/kg/injection, schedule: Q04DX003 (ip), vehicle: saline sonified 98 % of control

C=C1c2ccccc2N(CC)C1(COc1ccc(Cl)cc1)OC(=O)c1cccc(Cl)c1 (centres undefined)
inactive: [11] 100 % of control | [12] 95 % of control | [13] 110 % of control
